Test results published in ChEMBL document CHEMBL1949670, “Probes for narcotic receptor mediated phenomena. 44. Synthesis of an N-substituted 4-hydroxy-5-(3-hydroxyphenyl)morphan with high affinity and selective μ-antagonist activity” (Eur J Med Chem, 2012).

What was measured:
[1] = tested on: Mus musculus; assay: Antinociceptive activity in sc dosed mouse; assay type: functional
[2] = target: Mu-type opioid receptor (Homo sapiens) (UniProt P35372); details: CHO
Chain of Mu-type opioid receptor (Homo sapiens) (P35372 whole entry): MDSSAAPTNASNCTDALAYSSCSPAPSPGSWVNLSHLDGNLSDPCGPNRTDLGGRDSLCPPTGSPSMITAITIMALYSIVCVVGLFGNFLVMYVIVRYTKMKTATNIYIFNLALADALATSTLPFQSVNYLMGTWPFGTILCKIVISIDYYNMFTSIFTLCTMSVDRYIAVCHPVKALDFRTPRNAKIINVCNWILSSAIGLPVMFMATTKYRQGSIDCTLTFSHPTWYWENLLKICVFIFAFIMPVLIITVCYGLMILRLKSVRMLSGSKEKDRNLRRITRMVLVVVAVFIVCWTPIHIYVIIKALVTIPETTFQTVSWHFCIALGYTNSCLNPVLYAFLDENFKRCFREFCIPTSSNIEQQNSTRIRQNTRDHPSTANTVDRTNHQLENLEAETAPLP
Description: Antagonist activity at human mu receptor expressed in CHO cells membrane assessed as inhibition of DAMGO-induced [35S]GTPgammaS binding after 3 hrs by liquid scintillation counting

SMILES | ED50 [1] | ED50 [2] | Ke [2]
CN1CC[C@]23c4c5ccc(O)c4O[C@H]2[C@@H](O)C=C[C@@]3(O)[C@H]1C5 | 2.9 mg/kg | – | –
CN1CC2(OCCO2)[C@]2(c3cccc(O)c3)CCC[C@H]1C2 (racemic) | – | 89 nM | 154 nM
Oc1cccc([C@@]23CCC[C@@H](C2)N(CCc2ccccc2)C[C@H]3O)c1 (racemic) | – | – | 12 nM
CN1CC[C@]23c4c5ccc(O)c4O[C@H]2[C@@H](O)CC[C@H]3[C@H]1C5 [DIHYDROMORPHINE] | 1.8 mg/kg | – | –
CN1CC[C@]23c4c5ccc(O)c4O[C@H]2[C@@H](O)CC[C@@]3(O)[C@H]1C5 [HYDROMORPHINOL] | 1.1 mg/kg | – | –
